# Data: paper PMC3897169 (MedChemComm, 2013)
# Target: T1, L3MBTL3 (Homo sapiens, UniProt Q96JM7)
# T1 sequence (Q96JM7 225-555 limits assumed): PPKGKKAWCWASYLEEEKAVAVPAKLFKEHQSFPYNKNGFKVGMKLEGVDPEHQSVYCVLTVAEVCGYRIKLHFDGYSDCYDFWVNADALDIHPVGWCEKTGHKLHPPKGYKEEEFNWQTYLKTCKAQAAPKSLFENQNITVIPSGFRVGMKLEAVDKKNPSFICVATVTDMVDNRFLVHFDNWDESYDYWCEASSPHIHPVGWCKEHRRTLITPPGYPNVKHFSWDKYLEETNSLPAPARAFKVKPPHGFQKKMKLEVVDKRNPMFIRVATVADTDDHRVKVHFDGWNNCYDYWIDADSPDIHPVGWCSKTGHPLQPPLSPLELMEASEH
# Experiment: Isothermal titration calorimetry
# Format: binding
# Conditions: compared with UNC2533
row,SMILES,Fold loss in L3MBTL3 activity by ITC relative to UNC2533 [fold]
1,c1cc(N2CCC(N3CCCCC3)CC2)ccc1CCN1CCCC1 [compound 2],7

# Target: T1, L3MBTL3
# Experiment: AlphaScreen methylated histone peptide competition assay
# Format: binding
# Conditions: compared with UNC2533; 12 and 13 after incubation time of 30 minutes
row,SMILES,Fold drop in L3MBTL3 activity (AlphaScreen) relative to UNC2533
1,N#CC1CCN(CCc2ccc(N3CCC(N4CCCC4)CC3)cc2)C1 (stereo not shown) [compound 12],5 fold
2,O=C1CCN(CCc2ccc(N3CCC(N4CCCC4)CC3)cc2)C1 [compound 13],5 fold
3,c1cc(N2CCC(N3CCCC3)CC2)ccc1N1CCC(N2CCCC2)CC1 [compound 10],about 5 fold
4,O=C(CCc1ccc(N2CCC(N3CCCC3)CC2)cc1)N1CCCC1 [compound 8],more than 30 fold
5,c1cc(N2CCC(N3CCCCC3)CC2)ccc1CCN1CCCC1 [compound 2],9 fold
6,c1cc(CN2CCCC2)ccc1CCN1CCCC1 [compound 7],20 fold
